Assay results from patent US6552011B1, “(Androst-5-en-17beta -yl)alkyl sulfoxides and sulfones and their use for control of fertility” (Akzo Nobel NV, priority 1999, dated 2003).

Columns and labels:
Format in all cases: cell-based, mice (B6D2-F1, strain C57BL×DBA)
denuded oocytes (DO) [1] = test: Oocyte assay, agonistic testing, DO assay (overcoming hypoxanthine maintained meiotic arrest); settings: hypoxanthine 4 mM medium, 22 hours culture, number in brackets = control
From the text: Oocytes arrested in meiosis contain diffused chromosomes which are surrounded by an intact nuclear envelope known as the germinal vesicle (GV). Upon reinitiation of meiosis by the midcycle gonadotropin surge, the chromosomes recondense and the GV breaks down (GVBD). In vivo, the oocyte is exposed to hypoxanthine (HX), which maintains the oocyte arrested in the meiotic prophase. This meiotic arrest can be mimicked in vitro by addition of hypoxanthine to the culture medium. The agonistic activity of meiosis activating substances is measured as the ability to overcome the hypoxanthine maintained meiotic arrest in denuded oocytes (DO) or cumulus enclosed oocytes (CEO), i.e. as the ability to induce meiotic resumption in vitro.
(§1) Ovaries are obtained from immature female mice (B6D2-F1, strain C57BL×DBA). At the age of 19, 20 or 21 days the mice are injected subcutaneously with a single dose of 20 IU follicle stimulating hormone (Humegon, Organon, The Netherlands) in saline.
Forty-eight hours after follicle stimulating hormone injection mice are killed by cervical dislocation. The ovaries are removed, freed of extraneous tissue and placed in a multidish containing 0.5 ml preparation medium at 37° C. L-15 Leibovitz medium (Gibco, pH 7.3±0.1) supplemented with bovine serum albumin (3 mg.ml^−1), L-glutamine (0.23 mM), sodium pyruvate (2 mM) and hypoxanthine (4 mM) is used as preparation medium. The antral follicles of the ovaries are punctured under a dissecting microscope using two 27-gauge needles attached to two 1 ml syringes. Cumulus enclosed oocytes (CEO) of uniform size are selected with a mouth-controlled pipette and rinsed in 0,5 ml fresh preparation medium. About 20 CEO are obtained from one ovary.
Oocytes freed from cumulus cells, i.e. denuded oocytes (DO), are obtained by gently flushing CEO through a fine-bore mouth-controlled pipette. DO were collected in fresh MEM alpha medium, containing bovine serum albumin (3 mg.ml^−1), L-glutamine (0.23 mM), sodium pyruvate (2 mM) and hypoxanthine (4 mM), and washed twice before transfer to the test medium.
(§2) The oocyte assay is performed in 3 blocks, each block represents the ovaries of one mouse (randomized block design). […] At t=0 the number of oocytes with intact germinal vesicles (GV) or germinal vesicle break-down (GVBD) is counted under an inverted microscope with differential interference contrast equipment. […] At the end of the culture period the number of oocytes with GV or GVBD per group is counted. For statistical analysis the percentage germinal vesicle breakdown is calculated for each group in one block. These percentages are subjected to arcsin transformation, and differences between control and test compounds are analyzed by an ANOVA test for a randomized block design. […]

denuded oocytes (DO) [2] = test: Oocyte assay, antagonistic testing, DO assay (inhibition of FF-Mas induced oocyte maturation); settings: FF-Mas 5 μM, compound 5 μM, hypoxanthine 4 mM medium, 22 hours culture, number in brackets = control (FF-Mas alone)
Experimental: (§3) The meiosis inhibiting activity of the (androst-5-en-17β-yl)alkyl sulfoxides and sulfones of the invention is measured in an in vitro oocyte assay as the ability to inhibit the FF-Mas or 22S-hydroxy-FF-Mas induced maturation, in hypoxanthine media, in denuded oocytes (DO) or cumulus enclosed oocytes (CEO), respectively. The compounds can be used to inhibit meiosis in both male and female and thus can be used as contraceptive agents.
(§4) Natural resumption of meiosis can be mimicked in vitro by addition of FF-Mas or other agonists to the culture medium containing hypoxanthine. The antagonistic activity of the compounds is measured as the ability to inhibit the FF-Mas or 22S-hydroxy-FF-Mas induced oocyte maturation in denuded oocytes or cumulus enclosed oocytes, respectively, in vitro.
as §1
Forty-eight hours after follicle stimulating hormone injection mice are killed by cervical dislocation. The ovaries are removed, freed of extraneous tissue and placed in a multidish containing 0.5 ml preparation medium at 37° C. L-15 Leibovitz medium (Gibco, pH 7.3±0.1) supplemented with bovine serum albumin (3 mg.ml^−1), L-glutamine (0.23 mM), sodium pyruvate (2 mM) and hypoxanthine (4 mM) is used as preparation medium. […]
as §2, with “block.” for “block. These percentages are subjected to arcsin transformation, and differences between control and test compounds are analyzed by an ANOVA test for a randomized block design.”

[3] = tested on: cumulus enclosed oocytes (CEO); test: Oocyte assay, antagonistic testing, CEO assay (inhibition of 22S-hydroxy-FF-Mas induced oocyte maturation); settings: 22S-hydroxy-FF-Mas 5 μM, hypoxanthine 4 mM medium, 22 hours culture, number in brackets = control (22S-hydroxy-FF-Mas alone)
Experimental: as §3, §4, §1
Forty-eight hours after follicle stimulating hormone injection mice are killed by cervical dislocation. The ovaries are removed, freed of extraneous tissue and placed in a multidish containing 0.5 ml preparation medium at 37° C. […]
as §2

| Compound | % GVBD DO assay exp.(control) (denuded oocytes (DO) [1]; compound 10 μM) | % GVBD DO assay exp.(control) (denuded oocytes (DO) [2]) | % GVBD CEO assay exp.(control) ([3]; compound 2.5 μM) | % GVBD DO assay exp.(control) (denuded oocytes (DO) [1]; compound 5 μM) | % GVBD CEO assay exp.(control) ([3]; compound 1.0 μM) |
| --- | --- | --- | --- | --- | --- |
| CC(C)=CCC[C@@H](C)[C@H]1CC=C2C3=C(CC[C@@]21C)[C@@]1(C)CC[C@H](O)C(C)(C)[C@@H]1CC3 [FF-Mas, (3β,5α,20R)-4,4-dimethylcholesta-8,14,24-trien-3-ol, reference compound] | 84(7) % |  |  |  |  |
| CC(C)CC[C@@H](O)[C@@H](C)[C@H]1CC[C@H]2[C@@H]3CC=C4C[C@@H](O)CC[C@]4(C)[C@H]3CC[C@]12C [22R-hydroxycholesterol, (3β,20S,22R)-cholest-5-en-3-ol, reference compound] |  | 38(89) % | 52(89)^4% |  |  |
| C=C(C)C[S@+]([O-])C[C@@H](C)[C@H]1CC[C@H]2[C@@H]3CC=C4C(C)(C)[C@@H](O)CC[C@]4(C)[C@H]3CC[C@]12C [Example 1a, [3β,20S,(21R)]-4,4,20-Trimethyl-21-[(2-methyl-2-propenyl)sulfinyl]pregn-5-en-3-ol] |  | 14(84) % |  | 3(12) % | 9(96)^3% |
| C[C@H](C[S@@+]([O-])c1ccccc1)[C@H]1CC[C@H]2[C@@H]3CC=C4C(C)(C)[C@@H](O)CC[C@]4(C)[C@H]3CC[C@]12C [Example 3a, [3β,20S,(21R)]-4,4,20-Trimethyl-21-(phenylsulfinyl)pregn-5-en-3-ol] |  | 4(84) % |  | 4(12) % | 34(96)^3% |
| CC(C)=CC[C@H](O)[C@@H](C)[C@H]1CC=C2C3=C(CC[C@@]21C)[C@@]1(C)CC[C@H](O)C(C)(C)[C@@H]1CC3 [22S-hydroxy-FF-Mas, (3β,5α,20S,22S)-4,4-dimethylcholesta-8,14,24-triene-3,22-diol, reference compound] |  |  |  | 97(2) % |  |
